US4904585A, “Novel antibiotic NK84-0218 and process for the production of the same” (Nippon Kayaku Kabushiki Kaisha, priority 1984, dated 1990)
Values after ≈ are worked out from the molar mass of the structure shown.

Tests used:
Solubility in solvents = assay type: physicochemical
From the text: In order to isolate the antibiotic of the present invention, the culturing broth is purified in a manner conventionally used in isolating a metabolite of a microorganism from its culturing broth. […] For example, the culturing broth is adjusted to a pH value of 3.5 to 6.5, preferably 4 to 4.5, adsorbed by powdery active carbon, washed with water and eluted with a 50% aqueous acetone and the active fraction thus obtained is concentrated and lyophilized to give a brown crude powder. Then this powder is dissolved in methanol and insoluble substances are removed. The soluble portion is dried, dissolved in water, adsorbed by an active carbon column, washed with water and subjected to acetone linear concentration gradient elution with water and 50% aqueous acetone. The obtained active fraction is concentrated and lyophilized. The pale brown powder containing NK84-0218 thus obtained is dissolved in a small amount of water and packed into an Avicel column. Then it is developed with an aqueous alcohol and eluted with increasing the water content stepwise. The active fractions thus obtained are combined, concentrated and lyophilized. Subsequently the obtained powder is dissolved in a small amount of water and packed into an SP Sephadex® C-25(Na^+) column previously equilibrated with 0.02M sodium chloride. The active fractions eluted with 0.02M sodium chloride are desalted on active carbon to give a colorless powder. The powder thus purified is treated with water or an aqueous alcohol to give NK84-0218 in the form of colorless needles. The titer during the cultivation is determined by plate cup assay with Bacillus subtilis PCI 219.

[1] = tested on: Bacillus megaterium ATCC 14945; test: Antibacterial spectrum, agar plate dilution method; assay type: cell-based; details: Priestia megaterium, ATCC14945, 0.5% peptone agar, read-out: Minimum inhibitory concentration
[2] = tested on: herpes simplex virus-I (HSV-I); test: Antiviral activity, cytopathic effect of HSV-I on Vero cells; assay type: cell-based
Experimental: A medium containing a definite amount of NK84-0218 and herpes simplex virus-I (HSV-I) 5-10 TC ID50 are added onto a single layer of vero cells in a microplate having 96 wells and cultured in a 5% by volume carbon dioxide incubator at 37° C. for 96 to 120 hours. Then the antiviral activity of the test substance is determined by microscopically observing the cytopathic effect (CPE) of the HSV-I on the Vero cells. The inhibition is taken as effective when no CPE is observed in a well. For example, when CPE is observed in one well among ten at the same concentration, the inhibition ratio is 90%.

gram-positive bacteria = test: Antibacterial spectrum, summary in words; assay type: cell-based; details: S. aureus FDA 209P, Bacillus including B. subtilis PCI 219 and B. cereus IAM 1072, Micrococcus flavus ATCC 10240
[3] = tested on: Bacillus polymyxa IAM 1210; test: Antibacterial spectrum, agar plate dilution method; assay type: cell-based; details: Paenibacillus polymyxa, IAM1210, 0.5% peptone agar, read-out: Minimum inhibitory concentration
[4] = tested on: Micrococcus luteus ATCC 9341; test: Antibacterial spectrum, agar plate dilution method; assay type: cell-based; details: ATCC9341, 0.5% peptone agar, read-out: Minimum inhibitory concentration
[5] = tested on: Candida albicans NIH 3147; test: Antibacterial spectrum, agar plate dilution method; assay type: cell-based; details: NIH3147, 0.5% peptone agar, read-out: Minimum inhibitory concentration
[6] = tested on: Micrococcus flavus ATCC 10240; test: Antibacterial spectrum, agar plate dilution method; assay type: cell-based; details: ATCC10240, 0.5% peptone agar, read-out: Minimum inhibitory concentration
[7] = tested on: Bacillus licheniformis IFO 12107; test: Antibacterial spectrum, agar plate dilution method; assay type: cell-based; details: IFO12107, 0.5% peptone agar, read-out: Minimum inhibitory concentration
[8] = tested on: Salmonella paratyphi 1015 (MS-1); test: Antibacterial spectrum, agar plate dilution method; assay type: cell-based; details: Salmonella enterica, read-out: Minimum inhibitory concentration
[9] = tested on: Proteus mirabilis IFO 3849; test: Antibacterial spectrum, agar plate dilution method; assay type: cell-based; details: IFO3849, 0.5% peptone agar, read-out: Minimum inhibitory concentration
[10] = tested on: Salmonella typhi 901 (MS-1); test: Antibacterial spectrum, agar plate dilution method; assay type: cell-based; details: Salmonella enterica, read-out: Minimum inhibitory concentration
Escherichia coli K-12 = test: Antibacterial spectrum, agar plate dilution method; assay type: cell-based; details: K12, 0.5% peptone agar, read-out: Minimum inhibitory concentration
Acute toxicity on mice = assay type: in vivo
gram-negative bacteria = test: Antibacterial spectrum, summary in words; assay type: cell-based; details: agar plate dilution method
[11] = tested on: Serratia marcescens GM 6484; test: Antibacterial spectrum, agar plate dilution method; assay type: cell-based; details: GM6484, 0.5% peptone agar, read-out: Minimum inhibitory concentration
Escherichia coli NIHJ = test: Antibacterial spectrum, agar plate dilution method; assay type: cell-based; details: 0.5% peptone agar, read-out: Minimum inhibitory concentration
[12] = tested on: Proteus vulgaris IFO 3045; test: Antibacterial spectrum, agar plate dilution method; assay type: cell-based; details: IFO3045, 0.5% peptone agar, read-out: Minimum inhibitory concentration
[13] = tested on: Bacillus subtilis ATCC 6633; test: Antibacterial spectrum, agar plate dilution method; assay type: cell-based; details: ATCC6633, 0.5% peptone agar, read-out: Minimum inhibitory concentration
[14] = tested on: Staphylococcus aureus EDA 209P; test: Antibacterial spectrum, agar plate dilution method; assay type: cell-based; details: 0.5% peptone agar, read-out: Minimum inhibitory concentration
[15] = tested on: Salmonella enteritidis G14 (MS-1); test: Antibacterial spectrum, agar plate dilution method; assay type: cell-based; details: Salmonella enterica, 0.5% peptone agar, read-out: Minimum inhibitory concentration
[16] = tested on: Mycobacterium smegmatis ATCC 607; test: Antibacterial spectrum, agar plate dilution method; assay type: cell-based; details: Mycolicibacterium smegmatis, ATCC607, 0.5% peptone agar, read-out: Minimum inhibitory concentration
HeLa cell = test: Anti-HeLa cell activity; assay type: cell-based; details: for Cells/plate: 72 hours after the addition
Experimental: *The number of cells 72 hours after the addition of NK840218.

[17] = tested on: Pseudomonas aernginosa IFO 3445; test: Antibacterial spectrum, agar plate dilution method; assay type: cell-based; details: IFO3445, 0.5% peptone agar, read-out: Minimum inhibitory concentration
[18] = tested on: Bacillus subtilis PCI 219; test: Antibacterial spectrum, agar plate dilution method; assay type: cell-based; details: PCI219, 0.5% peptone agar, read-out: Minimum inhibitory concentration
[19] = tested on: Enterobacter aerogenes ATCC 13048 (MS-1); test: Antibacterial spectrum, agar plate dilution method; assay type: cell-based; details: Klebsiella aerogenes, ATCC13048, 0.5% peptone agar, read-out: Minimum inhibitory concentration
Bacillus cereus IAM 1072 = test: Antibacterial spectrum, agar plate dilution method; assay type: cell-based; details: IAM1072, 0.5% peptone agar, read-out: Minimum inhibitory concentration
[20] = tested on: Proteus morganii IFO 3168; test: Antibacterial spectrum, agar plate dilution method; assay type: cell-based; details: Morganella morganii, IFO3168, 0.5% peptone agar, read-out: Minimum inhibitory concentration
[21] = tested on: Klebsiella pneumoniae PCI 602; test: Antibacterial spectrum, agar plate dilution method; assay type: cell-based; details: PCI602, 0.5% peptone agar, read-out: Minimum inhibitory concentration

With Nc1ncnc2c1ncn2C1OC(CO)C1CO (centres unmarked) [NK84-0218] the Solubility (Solubility in solvents; in dimethyl sulfoxide) was “soluble”, the Solubility (Solubility in solvents; in ethanol) was “soluble” and the Solubility (Solubility in solvents; in methanol) was “soluble”. For the same molecule, the Solubility (Solubility in solvents; in other organic solvents such as propanol, acetone, ethyl acetate, ether and benzene) was “hardly or not soluble”, the Solubility (Solubility in solvents; in water) was “soluble” and the MIC [1] was 1.56 µg/mL (≈ 6.21 µM). The “antiviral activity (in words)” value [2] was “exhibits an antiviral activity”, the “inhibiting the growth of gram-positive bacteria” value (gram-positive bacteria) was “intense effects of inhibiting the growth” and the MIC [3] was under 0.1 µg/mL. The MIC [4] was 3.12 µg/mL (≈ 12.4 µM), the MIC [5] was over 100 µg/mL and the MIC [6] was 6.25 µg/mL (≈ 24.9 µM). It also gave an MIC [7] of 6.25 µg/mL (≈ 24.9 µM), an MIC [8] of over 100 µg/mL and an MIC [9] of over 100 µg/mL. The MIC [10] was over 100 µg/mL, the MIC (Escherichia coli K-12) was over 100 µg/mL and the “acute toxicity compared with various known nucleoside antibiotics” value (Acute toxicity on mice; i.v.) was “lower than those of various known nucleoside antibiotics”. The LD50 (Acute toxicity on mice; mouse, in vivo, iv) was at least 100 mg/kg, the “effect on gram-negative bacteria” value (gram-negative bacteria) was “no effect” and the MIC [11] was over 100 µg/mL. For the same molecule, the MIC (Escherichia coli NIHJ) was over 100 µg/mL, the MIC [12] was over 100 µg/mL and the MIC [13] was under 0.1 µg/mL. For the same molecule, the MIC [14] was under 0.1 µg/mL, the MIC [15] was over 100 µg/mL and the MIC [16] was over 100 µg/mL. For the same molecule, the Cells/plate (HeLa cell; 0.39 μg/ml) was 14.35 × 10^5, the Cells/plate (HeLa cell; 1.56 μg/ml) was 14.64 × 10^5 and the Cells/plate (HeLa cell; 6.25 μg/ml) was 13.91 × 10^5. The Cells/plate (HeLa cell; 25 μg/ml) was 13.47 × 10^5, the Cells/plate (HeLa cell; 100 μg/ml) was 2.78 × 10^5 and the inhibition at 0.39 µg/mL (HeLa cell; Homo sapiens, HeLa, 0.39 μg/ml, 72 hours, read-out: Inhibition ratio) was 3.58%. The inhibition at 1.56 µg/mL (HeLa cell; Homo sapiens, HeLa, 1.56 μg/ml, 72 hours, read-out: Inhibition ratio) was 1.26%, the inhibition at 6.25 µg/mL (HeLa cell; Homo sapiens, HeLa, 6.25 μg/ml, 72 hours, read-out: Inhibition ratio) was 6.94% and the inhibition at 25 µg/mL (HeLa cell; Homo sapiens, HeLa, 25 μg/ml, 72 hours, read-out: Inhibition ratio) was 10.2%. For the same molecule, the inhibition at 100 µg/mL (HeLa cell; Homo sapiens, HeLa, 100 μg/ml, 72 hours, read-out: Inhibition ratio) was 93.4%, the IC50 (HeLa cell; Homo sapiens, HeLa cell, 72 hours) was about 47 µg/mL (≈ 187 µM) and the MIC [17] was over 100 µg/mL. For the same molecule, the MIC [18] was under 0.1 µg/mL, the MIC [19] was over 100 µg/mL and the MIC (Bacillus cereus IAM 1072) was under 0.1 µg/mL. The MIC [20] was over 100 µg/mL and the MIC [21] was over 100 µg/mL.
